This is an account of results in a melting point compilation (Tetko et al.; mined from patent text by program, amines drawn as free bases though some values may be those of a salt).

Broadly, the melting point is the temperature of the solid-liquid transition. The compound `CC1(C)C(=O)N(c2ccc(C#N)c(C(F)(F)F)c2)C(=O)N1CCF` had a melting point of 10 °C.

`COC(=O)C1=C(C)Nc2c(c(-c3ccccc3)nn2-c2ccccc2)C1c1cccc([N+](=O)[O-])c1` (stereo not given) yielded a melting point of 186 to 189 °C.

`CCCS(=O)(=O)Nc1nc(CN2CCN(C(c3ccccc3)c3ccccc3)CC2)cs1` registered a melting point of 165 to 167 °C.

Turning to `CCN(C1CC(C)(C)Oc2ccc(OCCCCC(=O)NCCO)cc21)S(C)(=O)=O` (stereo not given), the melting point was in the range of 88 to 90 °C.

With `O=C1CCC(c2ccc(-n3cnc(CO)c3)cc2)=NN1`, the melting point lay within 214 to 215 °C.

`Cc1nc(Br)sc1NC(=O)OC(C)(C)C` yielded a melting point of 114 to 116 °C.

As to `COc1c(-c2nnc(Cc3ccc(F)cc3)o2)n(C)c2ccccc2c1=O`, the melting point lay within 156 to 157 °C.

The compound `Cc1ccc(C2(O)CCN(CCCN3c4cccc5cccc(c45)S3(=O)=O)CC2)cc1` gave a melting point of 218 °C.

Consider `C=CC(=O)CCC1=CC(=O)NC1=O`, for which the melting point was 77 to 78 °C.

Consider `CC12CCC(C1)C1(C)Oc3ccccc3C21C` (stereo not given), for which the melting point was 68 °C.

`O=C1c2ccccc2-c2oc(=O)c3ccccc3c21`: the melting point was 254 to 256 °C.

On to `Cn1cnc2c(Cl)ncnc21`, for which the melting point lay in the range of 205 to 207 °C.

With `O=C(c1ccc2nonc2c1)N(CC(F)(F)F)C1CCOCC1`, the melting point was in the range of 134 to 135 °C.

Take `O=C1CC(CO)(C(=O)N(Cc2ccccc2)Cc2ccccc2)CN1Cc1ccccc1` (stereo not given): the melting point lay in the range of 127 to 129 °C.

Take `CCCCn1c(=O)c(NC(=O)Nc2c(C(C)C)ccc(NC(=O)c3cccnc3)c2C(C)C)c(-c2cccc(OC)c2)c2cccnc21`: the melting point is 179 to 180 °C.

`CC(C)(C)OC(=O)Nc1ccc(CN2OCC(C)(C)C2=O)c(Cl)c1` gave a melting point of 124 to 126 °C.

`CCCCOC1C=CC(=O)N1S(=O)(=O)c1ccccn1` (stereo not given) yielded a melting point of 74 to 75 °C.

Regarding `O=C1C2CCCCC2C(=O)N1c1ccc(F)cc1F` (stereo not given), the melting point lay in the range of 117 to 123 °C.

The compound `CCCNC(=O)C(C#N)=C1Nc2ccccc2O1` showed a melting point of 215 to 220 °C.

`CSc1nccc(Oc2ccc(NC(=O)c3cc(F)cc(OC4CCCCC4)c3)c3ccccc23)n1` returned a melting point of 130 to 132 °C.

With `CCCN1CC(C(=O)OC)CC2c3cccc4[nH]cc(c34)CC21` (stereo not given), the melting point is 202 to 204 °C.

Compound `COc1cc(OC)c2c(=O)[nH]c(-c3ccc(OC4CCN(C(C)=O)CC4)cc3)nc2c1` came in with a melting point of 275 to 277 °C.

`CC(=O)NCc1ccc(CN2CCN(c3ccc(F)cc3N)CC2)cc1`: the melting point lay within 139 to 140 °C.

The compound `CC(C)(C)OC(=O)N1CCN(c2ccc3oc(C(N)=O)cc3c2)CC1` displayed a melting point of 198 to 200 °C.

Turning to `CC(=O)OCC1OC(Oc2ccsc2C(=O)c2ccc(OC(F)(F)F)cc2)C(OC(C)=O)C(OC(C)=O)C1OC(C)=O` (stereo not given), the melting point was in the range of 90 to 93 °C.

In turn, `NC(=O)c1ccc(C(=C2CC3CCC(C2)N3CCc2ccccc2)c2ccccc2)cc1` registered a melting point of 210 to 212 °C.

The compound `N#Cc1ccc2cc(Cc3cc4ccc(C#N)cc4o3)oc2c1` registered a melting point of 207 to 209 °C.

The compound `Oc1ccc(Oc2cccc(F)c2)cc1` yielded a melting point of 53 to 55 °C.

Take `O=[N+]([O-])c1ccc(Oc2ccc(C(F)(F)F)cc2Cl)cc1CCl`: the melting point lay in the range of 55 to 60 °C.

As to `C=CC(C)=CC=C(C(C)=CC(=O)OC1C(CO)OC(OC)C(O)C1O)c1c(C)cc(OC)c(C)c1C` (stereo not given), the melting point lay in the range of 159 to 160 °C.

`CC(Cn1cncn1)c1ccc(Cl)cc1Cl` (stereo not given) had a melting point of 79.5 °C.

Regarding `CCOP(=O)(O)Cc1nc2nc[nH]c2c2nc(-c3ccc(C(C)(C)C)cc3)nn12`, the melting point was in the range of 254 to 256 °C.

Consider `O=C1c2ccccc2C(=O)N1CC(Br)(c1ccccc1)C(Br)Br` (stereo not given), for which the melting point is 175 to 176 °C.

As to `CCCc1c(OCCCOc2ccc(C(=O)CCC(=O)O)cc2C)ccc(C(C)=O)c1O`, the melting point is 179 to 180 °C.

Regarding `O=S(=O)(Nc1cccc(Br)n1)c1cc(S(=O)(=O)Nc2cccc(Br)n2)c2ccccc2c1`, the melting point was in the range of 205 to 208 °C.

Compound `COc1cc(OC)nc(Oc2ccc3ccccc3c2C=NNc2ccccc2)n1` gave a melting point of 148 °C.

`Cc1ncoc1-c1ccc(C#N)cc1`: the melting point lay in the range of 120 to 121 °C.

In turn, `CC1=CC(=Cc2cc(C)cc(C3(C)CCCCC3)c2OCc2ccccc2)C(O)C(C2(C)CCCCC2)=C1` (stereo not given) displayed a melting point of 97 to 99 °C.

With `Cc1cccc2c1CCCC2c1c[nH]cn1` (stereo not given), the melting point was found to be 135 °C.

The compound `CCCN(CCC)C1CCc2ccc3c(c2C1)OCC3=O` (stereo not given) returned a melting point of 56 to 64 °C.

As to `Nc1cc2c(c(C(=O)O)c1)NCCC2`, the melting point lay within 207 to 208 °C.

Take `COc1ccc(CN(C)CCCCCc2ccc(NC(=O)c3cccc4c(=O)c5cccc(F)c5[nH]c34)cc2)cc1OC`: the melting point came out at 130 °C.

Turning to `Cc1ccc(S(=O)(=O)C2=CC3CCC2N3C(=O)OC(C)(C)C)cc1` (stereo not given), the melting point lay in the range of 144 to 147 °C.

In the case of `COC(=O)N(C(=O)Cl)c1ccc(OC(F)(F)F)cc1`, the melting point fell in the range of 97 to 99 °C.

Regarding `Cc1ccc(S(=O)(=O)NCCc2ccc(O)cc2)cc1`, the melting point lay in the range of 169 to 172 °C.

Compound `Cc1nccn1-c1nc(-c2ccc(Cl)cc2)c(CCCCOS(C)(=O)=O)o1` gave a melting point of 100 to 101 °C.

Take `COc1c(F)c(F)cc(C(N)=O)c1F`: the melting point lay in the range of 130 to 133 °C.

The compound `CCON=C(C(C)=NOCc1ccccc1C(=COC)C(=O)OC)c1ccc(Oc2ccc(Cl)cc2)cc1` showed a melting point of 87 to 89 °C.

Turning to `COc1ccc(NC(=O)NC(=O)Oc2ccccc2)cc1OC`, the melting point lay within 140 to 142 °C.

In the case of `CCN(CC)CC1CCCCN1CCCNC(=O)N1c2ccccc2NC(=O)c2ccccc21` (stereo not given), the melting point is 148 to 150 °C.

With `CC(=O)n1cc(Cn2ccnc2)c2ccccc21`, the melting point came to 122 °C.

`CCOC(=O)C(=NO)C(C)C`: the melting point lay in the range of 54 to 55 °C.

On to `CNC(=S)N(C)NC(=O)c1cccs1`, for which the melting point was 176 to 178 °C.

For the compound `Nc1c(-n2cncn2)cnn1-c1c(Cl)cc(C(F)(F)F)cc1Cl`, the melting point fell in the range of 170 to 174 °C.

In turn, `N#Cc1ccccc1C(=O)c1ccccc1S` yielded a melting point of 94 °C.

`CN1C(=O)C(c2cn(C)c3ccccc23)=C(c2cn(C)c3ccccc23)C1=O` displayed a melting point greater than 290 °C.

Regarding `CCOC(=O)c1ccc(O)cc1SC`, the melting point was 132 to 136 °C.

`CNC(=O)COC(=O)N1CCN(CCCc2cccc(-c3cccc(Cl)c3)c2)CC1` had a melting point of 82 to 85 °C.

The compound `CC1NC(=O)NN=C1c1ccc(NCCO)cc1` (stereo not given) had a melting point of 182 to 185 °C.

As to `Nc1c(-c2cccnc2)nsc1C(=O)O`, the melting point fell in the range of 235 to 236 °C.

`C=CCc1cc(C=CC(=O)O)ccc1O`: the melting point was 132 to 133 °C.

`FCCn1cc(-c2ccc3nnn(Cc4ccc5ncccc5c4)c3n2)cn1` returned a melting point of 168 to 170 °C.

Regarding `CCC(=O)NCCC1=C(C(C)C)Cc2cnc3c(c21)CCO3`, the melting point lay in the range of 168 to 170 °C.

`CN(C)c1ccc(-c2cccc(-c3ccnc4c(C(=O)c5cccs5)cnn34)c2)cc1`: the melting point was in the range of 200 to 202 °C.

`Cc1oc(-c2ccccc2)nc1CCc1ccc(CCCCCC2OC(=O)NC2=O)cc1` (stereo not given): the melting point was 116 to 117 °C.

`CCCc1ccc(OCC(C)O)c2c(=O)cc(C(=O)O)oc12` (stereo not given): the melting point lay in the range of 134 to 136 °C.

Compound `O=C1CCc2cc(-c3cccnc3)ccc21` showed a melting point of 103 to 106 °C.

In the case of `COc1cc2c(cc1OC)[C@H]1CCCC[C@H]1N=C2c1ccc(C(C)=NNC(=O)c2cccnc2)cc1`, the melting point was 162 °C.

Turning to `N#Cc1ccc(-c2ccc(-c3nc4cc(C#N)ccc4[nH]3)cc2)c(OCc2ccccc2)c1`, the melting point lay in the range of 205 to 208 °C.

In turn, `CN1CC(c2ccc(S(C)(=O)=O)cc2)=C(c2ccccc2)C1=O` yielded a melting point of 163 to 165 °C.

As for `CSCC(=O)[C@H](CC1CCCCC1)NC(=O)[C@H](CC(C)C)NC(=O)OCc1ccccc1`, the melting point is 83 to 84 °C.

Compound `CCCCn1nc(-c2ccc(F)cc2)c(-c2ccc(S(C)(=O)=O)cc2)cc1=O` returned a melting point of 111 to 113 °C.

In the case of `COC(=O)COc1c(OC)cc(C=O)cc1OC`, the melting point fell in the range of 99 to 100 °C.

As for `Cc1ccc(C(Br)=NOS(C)(=O)=O)cc1`, the melting point was in the range of 82.5 to 91.5 °C.

In turn, `OC(CCCN1CC=C(c2noc(C3CC3)n2)CC1)c1ccc(F)cc1` (stereo not given) gave a melting point of 89 to 92 °C.

The compound `C=C(C)CNc1cc(C(=O)O)cc(S(N)(=O)=O)c1Sc1ccc(NC(C)=O)cc1` had a melting point of 193 to 195 °C.

Compound `Nc1cc(Cl)c(Oc2ccc(Cl)cc2)cc1C(=O)O` displayed a melting point of 160 to 170 °C.

For the compound `CC(C)(C)c1ccc(S(=O)(=O)Nc2nc(-c3ncccn3)nc(OCCOc3ncc(Br)cn3)c2-c2cccs2)cc1`, the melting point lay in the range of 222 to 224 °C.

For `O=C(O)c1ccc2c(c1)C(=O)N(c1ccccc1)C2=O`, the melting point was 257 to 258 °C.

Regarding `Oc1ccc2nc(-c3cccc4c(Br)c(O)ccc34)oc2c1`, the melting point was 221 to 223 °C.

The compound `CC(=O)c1cc2c(s1)CCCC2NC(N)=O` (stereo not given) showed a melting point of 218 to 220 °C.

The compound `CC(C)(Cn1c(CO)nc2c(N)nc3ccccc3c21)NS(C)(=O)=O` came in with a melting point of 262 to 265 °C.

On to `Clc1cncc(Oc2cccc(Cl)n2)c1`, for which the melting point was 46 to 47 °C.

As for `c1ccc(OCCSCc2nnc(-c3ccc(OCCCN4CCCC4)cc3)o2)cc1`, the melting point was 70 °C.

In turn, `CN(C)C(=O)c1cc2ccccc2c(-c2ccccc2)n1` yielded a melting point of 114 to 116 °C.

For the compound `Cc1cc2c(-c3ccccc3Cl)c(NC(=O)Nc3ccccc3)c(=O)n(C)c2cc1C`, the melting point fell in the range of 218 to 219 °C.

In turn, `C[C@@H]1Cc2ccsc2[C@H](C)N1CCNC(=O)c1ccc(C#N)cc1` (relative stereo) registered a melting point of 122 to 124 °C.

Consider `CC1(C)CN=C(c2cnc3ccccc3c2)c2ccccc2O1`, for which the melting point fell in the range of 134 to 135 °C.

As to `O=C1C=C(c2ccccc2)SCCN1`, the melting point was in the range of 148 to 150 °C.

On to `CC(C)Oc1c(-c2ccc(S(C)(=O)=O)cc2)cnn(Cc2ccccc2)c1=O`, for which the melting point was in the range of 109 to 111 °C.
